# How the values were obtained:
# [1] = tested on: IL-4 production in normal human CD4+T cell; assay: IL-4 production inhibitory action evaluation test (anti-CD3/CD28 antibody stimulation, ELISA); type: cell-based; conditions: anti-CD3/CD28, 24 hours, read-out: IL-4 production inhibitory ratio (% of 1 μM)
# Experimental: In order to evaluate an action of the present compound as a GR agonist, IL-2 and IL-4 production inhibitory actions in a normal human CD4^+T cell after stimulation by an anti-CD3/CD28 antibody were investigated. For the measurement of the IL-2 and IL-4 production amounts, the ELISA method (manufactured by R&D Systems, Cat No. D2050, HS400) was used, and a procedure was carried out according to the protocol attached thereto. Hereinafter, the specific method will be described.
# Dynabeads (Registered Trademark) Human T-Activator CD3/CD28 (4×10^7 beads/mL) (Dynabeads) was used, and prepared according to the protocol attached thereto.
# After the test compound was dissolved in dimethylsulfoxide, the solution was diluted with an RPMI medium to prepare 400 μM of a test compound solution. The solution was diluted with a 4% dimethylsulfoxide-containing RPMI medium to prepare 40 μM of a test compound solution.
# Used cells: normal peripheral blood human CD4^+T cell (human CD4^+T cell) (Lonza)
# • 1) Frozen human CD4^+T cells were thawed in a warm water bath at 37° C., and added to an RPMI medium (RPMI 1640 containing 10% FBS, 100 U/mL of Penicillin, and […] of Streptomycin). • 2) The above suspension was recovered and centrifuged at 900 rpm for 10 minutes to give a cell sediment. • 3) The cell sediment was suspended in an RPMI medium and the operation of 2) was carried out. • 4) The cell sediment was adjusted to 4×10^5 cells/mL with an RPMI medium. • 5) The above suspension was cultured in a CO2 incubator (temperature: 37° C., CO2 concentration: 5%) for 1 hour or longer. (Test Method and Measurement Method) • 1) The cultured human CD4^+T cells were recovered and the cells were seeded in 96-well flat bottom culture plates at each 8.0×10^4 cells/0.2 mL/well. • 2) The test compound solution was added with each 5 μL/well. • 3) The prepared Dynabeads were added with each 2 μL/well. • 4) The sample in which 4% dimethylsulfoxide-containing RPMI medium was added with each 5 μL/well in place of each test compound solution, and the RPMI medium was added with each 2 μL/well in place of the Dynabeads was made a negative control. • 5) The sample in which 4% dimethylsulfoxide-containing RPMI medium was added with each 5 μL/well in place of each test compound solution was made a positive control. • 6) After completion of 24 hours cultivation, the supernatant was recovered and the amounts of IL-2 and IL-4 released in the supernatant was measured by using an ELISA Kit. • 7) The IL-2 and IL-4 production inhibitory ratios were calculated according to the following calculation formula. (Calculation of IL-2 and IL-4 Production Inhibitory Ratios)
# The IL-2 and IL-4 production inhibitory ratios (%) were calculated by the following formula, respectively. IL-2 or IL-4 production inhibitory ratio (%)=100×{1−(IL-2 or IL-4 production amounts of each test compound solution−average value of IL-2 or IL-4 production amount of negative control group)/(average value of IL-2 or IL-4 production amount of positive control group−average value of IL-2 or IL-4 production amount of negative control group)}(%) (Test Result and Consideration)
# [2] = tested on: IL-6 production in human corneal epithelium cell line (HCE-T); assay: IL-6 production inhibitory action evaluation test (LPS stimulation, HTRF); type: cell-based; conditions: 4 hours; for Emax: 100 μM test compound solution 10 μL/well, DEX treated group = 100, read-out: IL-6 production inhibitory ratio (% DEX); for IC50: IL-6 production inhibition
# Experimental: To evaluate the action of the present compounds as a GR agonist, IL-6 production inhibitory action in human corneal epithelial cell line after LPS stimulation was examined The IL-6 production was measured by using the HTRF method (Cat No. 62IL6PEB manufactured by Cisbio Bioassays, Inc.) according to the attached protocol. The specific method is described below.
# LPS solution: After dissolving LPS in PBS(−), the resulting solution was diluted with a culture solution, whereby an LPS solution with a 1 μg/mL concentration was prepared.
# After dissolving the test compound in dimethylsulfoxide, the solution was diluted with a 10% FBS-DMEM/Ham's F12 medium, whereby a 100 μM of the test compound solution was prepared. […] In addition, DEX was similarly dissolved, whereby a 100 μM concentration of the DEX solution was prepared, and an IL-6 production inhibitory ratio of DEX was measured, and used for calculation of Efficacy (% DEX).
# Used cells: human corneal epithelium cell line (HCE-T) (RIKEN, Institute of Physical and Chemical Research)
# The cells continued to subculture according to this method were used for the test. (Test Method and Measurement Method) • 1) The subcultured HCE-T was recovered and the cells were seeded at 2.0×10^4 cells/0.1 mL/well in a 96-well flat bottom culture plate. • 2) After culturing overnight, medium the medium was removed and each 80 μL/well of 10%
# FBS-DMEM/Ham's F12 medium was added. • 3) Test compound solution was added with each 10 μL/well. • 4) LPS solution was added with each 10 μL/well. • 5) The sample to which 1% dimethylsulfoxide-containing 10% FBS-DMEM/Ham's F12 medium was added with each 10 μL/well in place of each test compound solution, and 10% FBS-DMEM/Ham's F12 medium was added in place of the LPS solution was made a negative control. • 6) The sample in which 1% dimethylsulfoxide-containing 10% FBS-DMEM/Ham's F12 medium was added with each 10 μL/well in place of each test compound solution was made a positive control. • 7) After completion of 4 hours cultivation, the supernatant was recovered and the amount of IL-6 released in the supernatant was measured by using an HTRF human IL-6 Kit. • 8) The IL-6 production inhibitory ratio was calculated according to the following calculation formula. (Calculation of IL-6 Production Inhibitory Ratio)
# The IL-6 production inhibitory ratio (%) was calculated by the following formula. IL-6 production inhibitory ratio (%)=100×{1−(IL-6 produced amount of each test compound solution−average value of IL-6 produced amount of negative control group)/(average value of IL-6 produced amount of positive control group−average value of IL-6 produced amount of negative control group)}(%)
# Further, the IL-6 production inhibitory ratio (Efficacy (% DEX)) when the DEX treated group was made 100 was calculated. Efficacy (% DEX)=100×{(average value of IL-6 production inhibitory ratio of each test compound solution)/(average value of IL-6 production inhibitory ratio of DEX treated group)}(%)
# In addition, IC50 was calculated according to a conventional method. IDBS XLfit4 was used for the calculation.
SMILES,inhibition at 1 µM [1],Emax [2],IC50 [2]
"COc1cc(OC[C@H](C)O)ccc1-c1ccc2c(c1COc1cc(F)ccc1C)N(C)C(=O)C(C)(C)N2 [Compound 1-1, (S)-8-(5-fluoro-2-methylphenoxymethyl)-7-[4-(2-hydroxypropyl)oxy-2-methoxy-phenyl]-1,3,3-trimethyl-3,4-dihydro-1H-quinoxalin-2-one]",91%,86%,–
"COc1ccc(O)cc1-c1ccc2c(c1COc1cc(F)ccc1C)N(C)C(=O)C(C)(C)N2 [Control compound C, 8-(5-fluoro-2-methylphenoxymethyl)-7-(5-hydroxy-2-methoxyphenyl)-1,3,3-trimethyl-3,4-dihydro-1H-quinoxalin-2-one]",56%,71%,93 nM
"COCOc1ccc(-c2ccc3c(c2COc2cc(F)ccc2C)N(C)C(=O)C(C)(C)N3)c(OC)c1 [Control compound F, 8-(5-fluoro-2-methylphenoxymethyl)-7-(2-methoxy-4-methoxymethoxyphenyl)-1,3,3-trimethyl-3,4-dihydro-1H-quinoxalin-2-one, reference compound]",29%,62%,–
"CCCC(=O)Oc1ccc(-c2ccc3c(c2COc2cc(F)ccc2C)N(C)C(=O)C(C)(C)N3)c(OC)c1 [Control compound D, 7-(4-butyryloxy-2-methoxyphenyl)-8-(5-fluoro-2-methylphenoxymethyl)-1,3,3-trimethyl-3,4-dihydro-1H-quinoxalin-2-one, reference compound]",46%,69%,–
"COc1ccc(-c2ccc3c(c2COc2cc(F)ccc2C)N(C)C(=O)C(C)(C)N3)c(OC)c1 [Control compound E, 7-(2,4-dimethoxyphenyl)-8-(5-fluoro-2-methyl-phenoxymethyl)-1,3,3-trimethyl-3,4-dihydro-1H-quinoxalin-2-one, reference compound]",32%,10%,–
"COc1cc(OC[C@@H](O)CC#N)ccc1-c1ccc2c(c1COc1cc(F)ccc1C)N(C)C(=O)C(C)(C)N2 [Compound 5-2, (S)-7-[4-(3-cyano-2-hydroxypropyl)oxy-2-methoxyphenyl]-8-(5-fluoro-2-methyl-phenoxymethyl)-1,3,3-trimethyl-3,4-dihydro-1H-quinoxalin-2-one]",–,> 99%,13 nM
"COc1cc(OC[C@@H](O)CCO)ccc1-c1ccc2c(c1COc1cc(F)ccc1C)N(C)C(=O)C(C)(C)N2 [Compound 2-1, (S)-7-[4-(2,4-dihydroxybutyl)oxy-2-methoxyphenyl]-8-(5-fluoro-2-methyl-phenoxymethyl)-1,3,3-trimethyl-3,4-dihydro-1H-quinoxalin-2-one]",83%,82%,–
"COc1cc(OC[C@H](C)OC(=O)CN(C)C)ccc1-c1ccc2c(c1COc1cc(F)ccc1C)N(C)C(=O)C(C)(C)N2 [Compound 11-1, (S)-7-[4-[2-(N,N-dimethylaminoacetoxy)propyl]oxy-2-methoxyphenyl]-8-(5-fluoro-2-methylphenoxymethyl)-1,3,3-trimethyl-3,4-dihydro-1H-quinoxalin-2-one]",87%,–,–
"COc1ccc(CO)cc1-c1ccc2c(c1COc1cc(F)ccc1C)N(C)C(=O)C(C)(C)N2 [Control compound B, 8-(5-fluoro-2-methylphenoxymethyl)-7-(5-hydroxymethyl-2-methoxyphenyl)-1,3,3-trimethyl-3,4-dihydro-1H-quinoxalin-2-one, reference compound]",51%,62%,–

# Source: patent US10189796B2, “[4-(1,3,3-trimethyl-2-oxo-3,4-dihydro-1H-quinoxalin-7-yl)phenoxy]ethyloxy compound or salt thereof” (SANTEN PHARMACEUTICAL CO., LTD., priority 2015, dated 2019)
